Test results: PubChem BioAssay AID1963961 (Molecular Pharmacology Branch, DTP, NCI, 2024)
Blank lines part the entries; values can stand above or below the compound they belong to.

Test system: K98450-129-R-PDC multicell spheroids, viability
Test: Anticancer human tumor K98450-129-R-PDC patient-derived colon adenocarcinoma cell line growth inhibition [PI3K]
Settings: for IC50: curve of first compound; for viability, T/C: stronger effect = lower value
Text: Combinatorial screen of targeted agents with the PI3K inhibitors inavolisib, alpelisib, duvelisib, and copanlisib in multi-cell type tumor spheroids
A high-throughput screen of multi-cell type tumor spheroids was designed to identify active combinations of targeted small molecules and PI3K pathway inhibitors. Complex spheroids include a stromal component modeled by human endothelial cells (HUVEC) and fibroblasts modeled by human mesenchymal stem cells (MSCs). The concentration ranges selected for each drug and investigational agent were based upon clinically achievable concentrations if the clinical Cmax of the agent was known.
Compounds. The drugs and investigational agents: inavolisib (NSC800729), alpelisib (NSC765974), duvelisib (NSC772469), copanlisib (NSC816437), ipatasertib (NSC767898), afuresertib (NSC778305), talazoparib (NSC767125), sapanisertib (NSC764658), selumetinib (NSC741078), tovorafenib (DAY101, NSC766906), vemurafenib (NSC761431), ravoxertinib (NSC781343), sotorasib (NSC818433), MRTX1133 (NSC 836407), abemaciclib (NSC 768073), palbociclib (NSC758247), venetoclax (NSC 766270), SY5609 (NSC837396), enzalutamide (NSC755605), and darolutamide (NSC825331), were obtained from the National Cancer Institute (NCI) Developmental Therapeutics Program Chemical Repository. The FDA-approved anticancer drug set is available from the NCI Developmental Therapeutics Program. […] The stock solutions were prepared in dimethyl sulfoxide (DMSO, Sigma-Aldrich, St. Louis, MO, cat. D2650) at 800-fold the tested concentration and stored at -70 degrees C prior to their use. All drugs and investigational agents were tested over a range starting from a high concentration at or near the clinical Cmax and decreasing in half-log increments. If the clinical Cmax for an agent had not been determined, the highest concentration tested was 10 microM.
Cell Culture. All cells were maintained in an incubator at 37 degrees C and 5% CO2 with 95% humidity. The PDC lines were cultured according to standard operating procedures established by the NCI PDMR (https://pdmr.cancer.gov/sops/default.htm). All PDCs were thawed and cultured in Matrigel-coated flasks prepared with a working solution of 1X Ham's F-12 nutrient mix, without supplementation (Invitrogen, Waltham, MA, cat. 11765054), 100 U/mL penicillin-streptomycin (Invitrogen, cat. 15140122), and 2.5% Matrigel (Corning Inc., Corning, NY, cat. 354248) for the first three passages. The 354836-022-R-J1-PDC, 475296-252-R-J1-PDC, and 997726-040-R-J2-PDC lines were cultured in 6A media, which includes advanced DMEM/F-12 (Thermo Fisher Scientific, cat. 12634028), 10 mM HEPES (Thermo Fisher Scientific, cat. 15630080), 1X GlutaMAX supplement (Thermo Fisher Scientific, cat. 35050061), 0.1 mg/mL primocin (InvivoGen, San Diego, CA, cat. ant-pm-2), 10% defined fetal bovine serum, heat inactivated (HyClone Laboratories Inc., Logan, UT, cat. SH30070.03HI), 50% L-WRN conditioned media (ATCC, cat. CRL-3276), 1.25 mM N-Acetyl-L-cysteine (Sigma-Aldrich, cat. A9165), 10 mM nicotinamide (Sigma-Aldrich, cat. N0636), 1X B-27 supplement (Thermo Fisher Scientific, cat. 17504044), 1X N-2 supplement (Thermo Fisher Scientific, cat. 17502048), and 10 microM Y-27632 dihydrochloride (Tocris Bioscience, Bristol, United Kingdom, cat. 1254). The 624824-186-R-J2-PDC line was cultured in 6C/Colon 1B media, which includes all 6A media components plus 50 ng/mL human EGF recombinant protein (Thermo Fisher Scientific, cat. PHG0311). […]

[1] = second compound 0.0316 µM, first compound 0.0316 µM
[2] = second compound 0.0316 µM, first compound 0.1 µM
[3] = second compound 0.0316 µM, first compound 0.316 µM
[4] = second compound 0.0316 µM, first compound 1 µM
[5] = second compound 0.0316 µM, first compound 3.16 µM
[6] = second compound 0.0316 µM, first compound 10 µM
[7] = second compound 0.1 µM, first compound 0.0316 µM
[8] = second compound 0.1 µM, first compound 0.1 µM
[9] = second compound 0.1 µM, first compound 0.316 µM
[10] = second compound 0.1 µM, first compound 1 µM
[11] = second compound 0.1 µM, first compound 3.16 µM
[12] = second compound 0.1 µM, first compound 10 µM
[13] = second compound 0.316 µM, first compound 0.0316 µM
[14] = second compound 0.316 µM, first compound 0.1 µM
[15] = second compound 0.316 µM, first compound 0.316 µM
[16] = second compound 0.316 µM, first compound 1 µM
[17] = second compound 0.316 µM, first compound 3.16 µM
[18] = second compound 0.316 µM, first compound 10 µM
[19] = second compound 1 µM, first compound 0.0316 µM
[20] = second compound 1 µM, first compound 0.1 µM
[21] = second compound 1 µM, first compound 0.316 µM
[22] = second compound 1 µM, first compound 1 µM
[23] = second compound 1 µM, first compound 3.16 µM
[24] = second compound 1 µM, first compound 10 µM
[25] = second compound 3.16 µM, first compound 0.0316 µM
[26] = second compound 3.16 µM, first compound 0.1 µM
[27] = second compound 3.16 µM, first compound 0.316 µM
[28] = second compound 3.16 µM, first compound 1 µM
[29] = second compound 3.16 µM, first compound 3.16 µM
[30] = second compound 3.16 µM, first compound 10 µM
[31] = second compound 10 µM, first compound 0.0316 µM
[32] = second compound 10 µM, first compound 0.1 µM
[33] = second compound 10 µM, first compound 0.316 µM
[34] = second compound 10 µM, first compound 1 µM
[35] = second compound 10 µM, first compound 3.16 µM
[36] = second compound 10 µM, first compound 10 µM
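Also: spheroids exposed to agents for seven days before read-out.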

IC50 (second compound 0.0316 µM): > 10 µM
IC50 (second compound 0.1 µM): > 10 µM
IC50 (second compound 0.316 µM): > 10 µM
IC50 (second compound 1 µM): > 10 µM
IC50 (second compound 3.16 µM): > 10 µM
IC50 (second compound 10 µM): > 10 µM
SMILES: CC(Cn1ccc(-c2ccc(C#N)c(Cl)c2)n1)NC(=O)c1cc(C(C)O)[nH]n1 (stereo unspecified) + Cc1nc(NC(=O)N2CCCC2C(N)=O)sc1-c1ccnc(C(C)(C)C(F)(F)F)c1
viability, T/C [1]: 103%
viability, T/C [2]: 98.6%
viability, T/C [3]: 107%
viability, T/C [4]: 105%
viability, T/C [5]: 99.8%
viability, T/C [6]: 103%
viability, T/C [7]: 108%
viability, T/C [8]: 99.3%
viability, T/C [9]: 104%
viability, T/C [10]: 94.2%
viability, T/C [11]: 99.5%
viability, T/C [12]: 103%
viability, T/C [13]: 104%
viability, T/C [14]: 94.4%
viability, T/C [15]: 99.3%
viability, T/C [16]: 98.6%
viability, T/C [17]: 102%
viability, T/C [18]: 103%
viability, T/C [19]: 86.4%
viability, T/C [20]: 101%
viability, T/C [21]: 98.3%
viability, T/C [22]: 88.8%
viability, T/C [23]: 98.2%
viability, T/C [24]: 84.8%
viability, T/C [25]: 85.1%
viability, T/C [26]: 81.4%
viability, T/C [27]: 86.8%
viability, T/C [28]: 84%
viability, T/C [29]: 94%
viability, T/C [30]: 85.8%
viability, T/C [31]: 75.6%
viability, T/C [32]: 72.1%
viability, T/C [33]: 80.3%
viability, T/C [34]: 81.1%
viability, T/C [35]: 80.8%
viability, T/C [36]: 74.3%

IC50 (second compound 0.0316 µM): > 10 µM
IC50 (second compound 0.1 µM): > 10 µM
IC50 (second compound 0.316 µM): > 10 µM
IC50 (second compound 1 µM): > 10 µM
IC50 (second compound 3.16 µM): 9.63 µM
IC50 (second compound 10 µM): 8.5 µM
SMILES: Cn1ncc(Cl)c1-c1cc(C(=O)NC(CN)Cc2cccc(F)c2)sc1Cl (stereo unspecified) + CC(Nc1ncnc2nc[nH]c12)c1cc2cccc(Cl)c2c(=O)n1-c1ccccc1
viability, T/C [1]: 88.4%
viability, T/C [2]: 105%
viability, T/C [3]: 102%
viability, T/C [4]: 93.8%
viability, T/C [5]: 98.1%
viability, T/C [6]: 56.9%
viability, T/C [7]: 107%
viability, T/C [8]: 85%
viability, T/C [9]: 96%
viability, T/C [10]: 92.6%
viability, T/C [11]: 98.1%
viability, T/C [12]: 59.8%
viability, T/C [13]: 110%
viability, T/C [14]: 106%
viability, T/C [15]: 92.4%
viability, T/C [16]: 101%
viability, T/C [17]: 99%
viability, T/C [18]: 61.5%
viability, T/C [19]: 95.7%
viability, T/C [20]: 110%
viability, T/C [21]: 101%
viability, T/C [22]: 80.8%
viability, T/C [23]: 96.6%
viability, T/C [24]: 61.2%
viability, T/C [25]: 87.3%
viability, T/C [26]: 94.5%
viability, T/C [27]: 106%
viability, T/C [28]: 96.9%
viability, T/C [29]: 97%
viability, T/C [30]: 48.4%
viability, T/C [31]: 85.1%
viability, T/C [32]: 86.1%
viability, T/C [33]: 87%
viability, T/C [34]: 94.9%
viability, T/C [35]: 89.8%
viability, T/C [36]: 43.7%

IC50 (second compound 0.00316 µM): 3.53 µM
IC50 (second compound 0.01 µM): 3.98 µM
IC50 (second compound 0.0316 µM): 3.99 µM
IC50 (second compound 0.1 µM): 3.02 µM
IC50 (second compound 0.316 µM): 2.2 µM
IC50 (second compound 1 µM): 1.87 µM
SMILES: C=CC(=O)N1CCN(c2nc(=O)n(-c3c(C)ccnc3C(C)C)c3nc(-c4c(O)cccc4F)c(F)cc23)C(C)C1 (stereo unspecified) + CC(Nc1ccc2c(c1)OCCn1cc(N3C(=O)OCC3C(F)F)nc1-2)C(N)=O
viability, T/C (second compound 0.00316 µM, first compound 0.0316 µM): 108%
viability, T/C (second compound 0.00316 µM, first compound 0.1 µM): 92.8%
viability, T/C (second compound 0.00316 µM, first compound 0.316 µM): 95.1%
viability, T/C (second compound 0.00316 µM, first compound 1 µM): 76.7%
viability, T/C (second compound 0.00316 µM, first compound 3.16 µM): 50.8%
viability, T/C (second compound 0.00316 µM, first compound 10 µM): 31.1%
viability, T/C (second compound 0.01 µM, first compound 0.0316 µM): 108%
viability, T/C (second compound 0.01 µM, first compound 0.1 µM): 95.8%
viability, T/C (second compound 0.01 µM, first compound 0.316 µM): 110%
viability, T/C (second compound 0.01 µM, first compound 1 µM): 83.8%
viability, T/C (second compound 0.01 µM, first compound 3.16 µM): 56.5%
viability, T/C (second compound 0.01 µM, first compound 10 µM): 28.9%
viability, T/C [1]: 107%
viability, T/C [2]: 97.7%
viability, T/C [3]: 95.5%
viability, T/C [4]: 79.7%
viability, T/C [5]: 54.1%
viability, T/C [6]: 31%
viability, T/C [7]: 92.4%
viability, T/C [8]: 100%
viability, T/C [9]: 94.8%
viability, T/C [10]: 82.8%
viability, T/C [11]: 48.8%
viability, T/C [12]: 24.9%
viability, T/C [13]: 88.7%
viability, T/C [14]: 97.7%
viability, T/C [15]: 107%
viability, T/C [16]: 75.4%
viability, T/C [17]: 39.3%
viability, T/C [18]: 25.2%
viability, T/C [19]: 85.6%
viability, T/C [20]: 92.1%
viability, T/C [21]: 83.7%
viability, T/C [22]: 67%
viability, T/C [23]: 35.8%
viability, T/C [24]: 19%
